What all share (experiment): DTP human tumour cell line panel, 48 h
The subject of assay [1] is HS 578T breast.
Assay [2] concerns SF-295 CNS.
The test system of assay [3] is K-562 leukemia.
In assay [4] the test system is OVCAR-8 ovarian.
Assay [5] concerns SK-MEL-28 melanoma.
The test system of assay [6] is HCC-2998 colon.
Assay [7] concerns SK-OV-3 ovarian.
Assay [8] has as its system OVCAR-5 ovarian.
The test system of assay [9] is NCI-H23 lung.
Assay [10] deals with A549 NSCLC.
The test system of assay [11] is MALME-3M melanoma.
Assay [12] deals with 786-0 renal.
Assay [13] has as its system RXF 393 renal.
In assay [14] the test system is HCT-15 colon.
Assay [15] deals with SF-268 CNS.
The test system of assay [16] is UACC-62 melanoma.
Assay [17] has as its system OVCAR-3 ovarian.
Assay [18] concerns HOP-62 NSCLC.
Assay [19] concerns HCT-116 colon.

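Protocol summary: plate cells (96-well), add compound at 5 concentrations, incubate 48 h, interpolate endpoints linearly. TGI denotes the concentration required for complete inhibition of growth.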

One may read the TGI as the concentration at which net growth stops. Low values mean more potent growth arrest, high ones less potent growth arrest.

For `COC(=O)[C@]12C3=C(O)C(=O)C[C@H]1OC[C@H]2C=CC3`, the concentration for total growth inhibition (TGI) in [1], in [2], in assay [3], in assay [4], in assay [5] and in assay [6] was over 100 µM throughout. In addition, the TGI in [7], in [8], in assay [9], in assay [10], in assay [11] and in [12] was over 100 µM each time. The TGI in [13], in [14], in [15], in assay [16], in assay [17] and in assay [18] was over 100 µM each time.

For `NNC(=O)c1cc([N+](=O)[O-])ccc1NC(=O)C12CC3CC(CC(C3)C1)C2`, the TGI is 28.8 µM in [1]; 63 µM in [2]; over 100 µM in assay [3]; over 100 µM in assay [4]; 83.4 µM in assay [6]; 42.4 µM in assay [7]. Further, the TGI was over 100 µM in assay [8]; over 100 µM in [9]; 51.7 µM in [10]; 56.1 µM in assay [11]; over 100 µM in assay [12]; 42.2 µM in [13]. Also, the TGI is 3.42 µM in [14]; over 100 µM in [15]; 28 µM in assay [16]; over 100 µM in [19]; 84.3 µM in assay [17]; over 100 µM in [18].

With `COc1cc2c(c(OC)c1OC)C(=O)[C@@H](O)[C@H]2NC(N)=O`, the TGI in assay [1], in [2], in [3], in assay [4], in assay [5] and in [6] was over 100 µM each time. Besides, the TGI in [8], in assay [9], in assay [10], in assay [11], in [12] and in assay [13] was over 100 µM each time. The TGI in assay [14], in [15], in assay [16], in assay [19], in assay [17] and in assay [18] was over 100 µM each time.

In the case of `CC(C)(C)n1c(=O)n(-c2ccccc2)n(C(C)(C)C)c1=O`, the TGI in assay [1], in assay [2], in assay [3], in assay [4], in assay [5] and in assay [6] was over 100 µM throughout. In addition, the TGI in [7], in assay [8], in assay [9], in assay [10], in [11] and in [12] was over 100 µM throughout. Further, the TGI in [13], in [14], in assay [16], in assay [19], in [17] and in assay [18] was over 100 µM throughout.

For the compound `CO[C@@H]1C[C@H]2[C@@H]3CC[C@H]([C@H](C)COC(C)=O)[C@@]3(C)CC[C@@H]2[C@@]2(C)CC[C@H]3C[C@]312`, the TGI in assay [1], in assay [2], in assay [3], in assay [4], in assay [5] and in assay [6] was over 100 µM throughout. For the same compound, the TGI in assay [8], in assay [9], in [10], in assay [11], in assay [12] and in assay [13] was over 100 µM each time. Moreover, the TGI in assay [14], in assay [15], in assay [19], in [17] and in [18] was over 100 µM throughout.

For `C=C1CCC2[C@](C)(CCC[C@]2(C)C(=O)O)[C@@H]1CCc1ccoc1` (stereo partly drawn), the TGI in [1] was 80.3 µM; in [2], over 100 µM; in [3], over 100 µM; in [5], over 100 µM; in assay [6], over 100 µM; in assay [7] it was over 100 µM. Further, the TGI in assay [8] was over 100 µM; in assay [9] it was 50.7 µM; in assay [10] it was over 100 µM; in assay [11] it was over 100 µM; in assay [12], over 100 µM; in assay [13], over 100 µM. Also, the TGI in assay [14] is over 100 µM; in assay [15], over 100 µM; in assay [16], over 100 µM; in assay [19] it was 88.4 µM; in [17] it was 66 µM; in assay [18] it was over 100 µM.

Take `CC(C)OC(=O)C1(C(C)C)CCc2ccc(C(=O)CCC(=O)O)cc21` (stereo not drawn): the TGI in assay [1], in assay [2], in assay [3], in [4], in [5] and in assay [6] was over 100 µM each time. Further, the TGI in assay [7], in assay [8], in assay [9], in [10], in assay [11] and in assay [12] was over 100 µM throughout. For the same compound, the TGI in assay [13], in assay [14], in [15], in assay [16], in assay [19] and in [18] was over 100 µM in each case.

Consider `CNn1c(-c2ccc(C)cc2)n[nH]c1=O`, for which the TGI in assay [1], in assay [2], in assay [3], in assay [4], in assay [6] and in [7] was over 100 µM in each case. For the same compound, the total growth inhibition concentration (TGI) in assay [8], in assay [9], in assay [10], in assay [11], in assay [12] and in assay [13] was over 100 µM in each case. Moreover, the concentration for total growth inhibition (TGI) in [14], in [15], in [16], in assay [19], in assay [17] and in assay [18] was over 100 µM each time.
